In patent US20080058310A1, “High-density lipoprotein-cholesterol level elevating agent” (Takeda Pharmaceutical Company Limited, priority 2000, published 2008):

Tests used:
[1] = test system: WHHL (Watanabe heritable hyperlipidemic) rabbits; assay: Blood lipid levels in WHHL (LDL receptor-deficient) rabbits fed the compound in feedstuff for 14 days (Test Example 2); assay type: in vivo, rabbit; conditions: Means ± SEM (n = 6)
Experimental: WHHL (Watanabe heritable hyperlipidemic) rabbits (2 to 3 months-old, four male, eight female), LDL receptor-deficient animal were used. The body weight was measured. Blood was then taken from the ear central artery, and the total cholesterol (TC) and triglyceride (TG) in blood plasma were measured using Wako Pure Chemical kit (manufactured by Wako Pure Chemicals, Inc.) and an autoanalyzer (Hitachi 7070). The animals were divided into two groups, each of which consisted of six animals. The subject compound was mixed with a basic feedstuff (RC-4, Oriental Yeast, Co., Ltd) in an amount of 0.2%, and the mixed feedstuff was fed to the animals in an amount of 120 g per a day (corresponds to the amount of 100 mg/kg/day). To the control group was fed basic feedstuff in an amount of 120 g per a day. The blood lipid levels at the starting of administration and after finishing the administration for 14 days are shown in Table 2 and Table 3, respectively.

common marmosets = assay: Plasma lipid change in common marmosets after four days of oral administration (Test Example 1); assay type: in vivo, common marmoset; conditions: male common marmosets, 100 mg/kg/day oral once a day for four days, blood plasma on fifth day, Means ± SEM (N = 5)
Experimental: Male common marmosets (300-500 g) were bred while feeding normal feed (CMS-1, CLEA Japan, Inc.) and water freely. The body weight was measured. Blood was taken from the femoral vein, and the total cholesterol (TC), HDL-cholesterol (HDL-C) and triglyceride (TG) in blood plasma were measured using Wako Pure Chemical kit (manufactured by Wako Pure Chemicals, Inc.) and an autoanalyzer (Hitachi 7070). The animals were devided into groups, each of which consisted of five animals. The subject compound, as a suspension in 0.5% methylcellulose, was forced oral administration to the animals once a day and for four days. On the morning of the fifth day, the body weight was measured. Blood was then taken from the femoral vein, and the total cholesterol, triglyceride and HDL-cholesterol in blood plasma were measured according to the above-mentioned method. The non-HDL-C was calculated by subtracting the HDL-cholesterol from the total cholesterol.

[2] = 0.2% in feed (corresponds to 100 mg/kg/day), after 14 days relative to initial
[3] = 0.2% in feed (corresponds to 100 mg/kg/day), after administration for 14 days
[4] = blood plasma at the starting of administration (baseline) of the 0.2% in feed group

COc1cccc([C@H]2O[C@H](CC(=O)N3CCC(CC(=O)O)CC3)C(=O)N(CC(C)(C)COC(C)=O)c3ccc(Cl)cc32)c1OC [subject compound, N-[[(3R,5S)-1-(3-acetoxy-2,2-dimethylpropyl)-7-chloro-5-(2,3-dimethoxyphenyl)-2-oxo-1,2,3,5-tetrahydro-4,1-benzoxazepin-3-yl]acetyl]piperidine-4-acetic acid]
TC % of initial [1, 2]: 85 ± 2 % | TG % of initial [1, 2]: 40 ± 3 % | TC (mg/dL) end [1, 3]: 715 ± 36 mg/dL | TG (mg/dL) end [1, 3]: 107 ± 10 mg/dL | TC (mg/dL) initial [1, 4]: 838 ± 45 mg/dL | TG (mg/dL) initial [1, 4]: 272 ± 24 mg/dL | HDL-C (%-change) (common marmosets): 16.2 ± 10% | TG (%-change) (common marmosets): −37.6 ± 17% | Non-HDL-C (%-change) (common marmosets; non-HDL-C = total cholesterol minus HDL-cholesterol): −40.4 ± 4 %
